Test results from publication PMC13013135, “[^99mTc]Tc-PSMA-HSG for PSMA-targeted Hybrid Surgical Guidance: a new addition to the PSMA-I&S/I&T family” (European Journal of Nuclear Medicine and Molecular Imaging, 2025).
Several values for one entry are separate records, joined by “and”; a condition that tells them apart may be missing. Equal entries are not always repeated. Where two headings read alike, the source gives them in different places.

How the values were obtained:
PSMA [1] = biological target: T1, PSMA (Homo sapiens, UniProt Q04609); assay type: in vivo; parameters: Five patients with a diagnosis of initial (n = 4) or biochemical recurrence of (n = 1) histologically proven prostate cancer; from tissue; host or cells: prostate cancer patients: primary tumour, lymph nodes, resected tissue sections
Text: For all patients, radioguided surgery had been recommended by the local multidisciplinary tumor board. […] Attenuation maps were generated on the basis of low-dose CT. For a detailed protocol of imaging parameters and the dosimetry protocol please refer to the Supplementary Material. […] A scatter window ranging from 114 to 126 keV was additionally acquired for planar and SPECT imaging. For SPECT, the imaging field of view was from neck to upper thighs. At each bed position, 60 views were acquired, with a duration of 8 s each. Subsequently, images were reconstructed using an ordered subset expectation maximisation (OSEM) algorithm (2 iterations and 10 subsets) with a Butterworth filter (fc = 0.48, n = 10). Scatter and attenuation correction was applied. For whole-body planar imaging, a scan speed of 30 cm/min was employed until 60 min post-injection, after which the acquisition speed was moderated to 12 cm/min for any further data collection.

[2] = Lipophilicity, modified shake-flask method; assay type: physicochemical
Procedure: The lipophilicity of [^99mTc]Tc-PSMA-HSG was determined via a modified shake-flask method as described.

PSMA [3] = biological target: T1, PSMA; experiment: Radioguided surgery (RGS) with gamma probe, ex vivo fluorescence microscopy; assay type: in vivo; parameters: Five patients with a diagnosis of initial (n = 4) or biochemical recurrence of (n = 1) histologically proven prostate cancer; from tissue; host or cells: prostate cancer patients: primary tumour, lymph nodes, resected tissue sections
Procedure: Radioguided open surgery was performed the day after tracer injection by an experienced urologic surgeon (DW; more than 20 years of surgical experience) in collaboration with a nuclear medicine physician. Using a conventional gamma probe (C-Trak®, SanuC GmbH, Jahnsdorf, Germany), suspicious lymph nodes (defined as spots with signal-to-background ratios ≥ 2) were excised separately followed by pelvic lymph node dissection. […] Fresh frozen tissue sections were prepared using a standard cryosectioning protocol with 10–20 μm sections mounted for fluorescence imaging. These slides were stored on dry ice prior to fluorescence microscopy to preserve tissue integrity. Fluorescence microscopy of patient samples was performed using an Axioscan 7 slide scanner (Zeiss) equipped with a Colibri 7 LED light source and a 20×/0.8 NA Plan-Apochromat objective. Cy5 fluorescence was acquired using a filter set with excitation 640/30 nm, dichroic mirror 660 nm, and emission 690/50 nm. Image acquisition and analysis were performed using ZEN Blue 3.5 software (Zeiss). For immunohistochemical analysis, adjacent formalin-fixed, paraffin-embedded tissue sections were cut at 2 μm thickness and stained for PSMA (clone EP192 BioSB, BIOO Scientific) using a Ventana Benchmark automated platform (Bio SB, Santa Barbara, CA, USA). Conventional hematoxylin and eosin (H&E) and immunohistochemical (for PSMA) staining was performed on corresponding tissue sections to enable morphologic correlation and verification of target expression, respectively. For further information on immunhistochemical staining please refer to the Supplementary Material.

[4] = system: LNCaP xenograft bearing NSG mice; experiment: Small animal SPECT/CT with 2-PMPA blocking; assay type: in vivo, mouse; details: 1 nmol peptide, 1 µmol 2-PMPA, SPECT/CT 2–4 h p.i.
Procedure: SPECT/CT images were acquired using an Albira Si PET/SPECT/CT (Bruker Biospin Corporation, Woodbridge, CT, USA) instrument. Mice were injected with the respective ^99mTc-labeled tracer (24–34 MBq; the injected peptide amount was kept constant at 1 nmol/animal), with (blocking) or without (control) coinjection of 226 µg (1 µmol) 2-PMPA. […] For SPECT imaging, static acquisitions of 2 h (accumulation of 1–2 × 10^6 events) were acquired with the following parameters: photopeak at 140 keV ± 30%, axial FOV 82.5 mm using a single pinhole collimator. For reconstruction, an ordered subset expectation-maximization algorithm (OSEM) with two iterations was used, and scatter correction was applied. For CT, the following parameters were used: 400 µA intensity and 35 kV voltage, 600 projections. Images were reconstructed using a filtered back-projection (FBP) algorithm with de-ringing correction. Fused representative SPECT/CT images were acquired using the PMOD software (PMOD technologies, version 3.709, Zurich, Switzerland).

[5] = biological target: human serum albumin (HSA) (Homo sapiens, UniProt P02768); experiment: Plasma protein binding (B50), ultrafiltration, HSA; assay type: in vitro ADME
Procedure: A detailed experimental procedure is provided in the Supplementary Material. […] Briefly, protein solutions (maximum concentration: […] Samples were briefly vortexed and incubated for 30 min at 37 °C. […] The filter units were then removed from the centrifugal tubes and washed twice with 300 µL PBS to recover the protein fraction. The activity in the filtrate, filter and protein fraction were then quantified using a γ-counter. […] The percentages of radioligand bound to the respective proteins are represented as means ± standard deviation (SD) of three independent experiments.

[6] = exploratory cohort, five patients
[7] = subjects with newly diagnosed PCa

T1 sequence (Q04609 whole entry): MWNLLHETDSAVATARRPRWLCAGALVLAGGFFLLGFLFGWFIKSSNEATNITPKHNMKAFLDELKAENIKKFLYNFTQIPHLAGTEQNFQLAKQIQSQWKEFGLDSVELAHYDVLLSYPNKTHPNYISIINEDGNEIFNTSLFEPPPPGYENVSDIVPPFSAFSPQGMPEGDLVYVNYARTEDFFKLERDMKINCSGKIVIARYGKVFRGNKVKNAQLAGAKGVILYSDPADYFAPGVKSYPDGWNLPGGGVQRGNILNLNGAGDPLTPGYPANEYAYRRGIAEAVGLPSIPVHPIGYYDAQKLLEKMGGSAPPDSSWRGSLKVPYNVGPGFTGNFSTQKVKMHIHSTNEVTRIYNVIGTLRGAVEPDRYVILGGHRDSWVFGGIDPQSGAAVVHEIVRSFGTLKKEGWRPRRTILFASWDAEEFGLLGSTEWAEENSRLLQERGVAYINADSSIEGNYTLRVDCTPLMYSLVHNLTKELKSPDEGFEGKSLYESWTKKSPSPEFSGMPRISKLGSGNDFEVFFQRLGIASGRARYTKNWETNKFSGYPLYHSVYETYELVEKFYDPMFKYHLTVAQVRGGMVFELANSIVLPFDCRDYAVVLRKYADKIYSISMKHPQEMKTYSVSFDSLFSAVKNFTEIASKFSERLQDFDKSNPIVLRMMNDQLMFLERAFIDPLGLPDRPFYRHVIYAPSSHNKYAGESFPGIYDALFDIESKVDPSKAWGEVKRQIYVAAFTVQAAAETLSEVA
Sequence of human serum albumin (HSA) (P02768 25-609): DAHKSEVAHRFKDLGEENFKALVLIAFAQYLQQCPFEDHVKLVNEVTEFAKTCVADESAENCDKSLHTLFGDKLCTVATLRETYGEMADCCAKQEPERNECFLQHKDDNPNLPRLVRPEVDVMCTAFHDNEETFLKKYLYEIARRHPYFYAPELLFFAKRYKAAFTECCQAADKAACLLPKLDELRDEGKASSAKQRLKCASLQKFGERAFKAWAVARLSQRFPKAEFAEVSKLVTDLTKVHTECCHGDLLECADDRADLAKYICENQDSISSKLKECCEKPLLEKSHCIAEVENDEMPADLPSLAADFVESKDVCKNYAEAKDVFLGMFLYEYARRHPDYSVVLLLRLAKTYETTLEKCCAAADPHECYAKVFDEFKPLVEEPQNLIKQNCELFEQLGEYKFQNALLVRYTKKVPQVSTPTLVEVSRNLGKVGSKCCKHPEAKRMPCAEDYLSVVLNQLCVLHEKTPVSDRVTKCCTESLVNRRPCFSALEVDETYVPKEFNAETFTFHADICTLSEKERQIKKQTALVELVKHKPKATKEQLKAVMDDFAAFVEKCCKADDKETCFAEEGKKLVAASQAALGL

negative predictive value (NPV) of SPECT/CT (PSMA [1]; [6]): 94% | positive predictive value (PPV) of SPECT/CT (PSMA [1]; [6]): 100% | sensitivity of SPECT/CT (PSMA [1]; [6]): 33% | specificity of SPECT/CT (PSMA [1]; [6]): 100% | PET-suspicious lymph nodes positive in scintigraphy (PSMA [1]; [7]): 2/10 | primary tumor delineated / visualized (PSMA [1]; [7]): 3 out of 4 and 3/4 | RGS, ex vivo activity, left external iliac LN (PSMA [3]; Patient #1): 190 cps | RGS, ex vivo activity, right external iliac LN (PSMA [3]; Patient #1): 230 cps | RGS, ex vivo activity, right iliac LN (2 adjacent LNs) (PSMA [3]; Patient #4): 20 cps | RGS, ex vivo activity, right iliac LN (first listed) (PSMA [3]; Patient #4): 50 cps | RGS, ex vivo activity, right iliac LN (last listed) (PSMA [3]; Patient #4): 15 cps | RGS, in vivo activity measurements (PSMA [3]; Patient #4, 350 µg): No detection of tracer-positive lesions | specificity of uptake in resected lymph nodes, fluorescence microscopy (PSMA [3]; Patient #4, 350 µg): highly PSMA-specific | NPV of RGS (PSMA [3]; [6]): 100% | PPV of RGS (PSMA [3]; [6]): 100% | sensitivity of RGS (abstract: selectivity) (PSMA [3]; [6]): 100% | specificity of RGS (PSMA [3]; [6]): 100% | lymph node metastases in tracer-avid lesions, intraoperative gamma detection (PSMA [3]; in vivo): 6/6 | true negative lymph nodes identified by RGS (PSMA [3]; patient sub-cohort): 53/53 | true positive lymph nodes identified by RGS (PSMA [3]; patient sub-cohort): 4/4
Compound: C[N+]1=C(/C=C/C=C/C=C2/N(CCCCCC(=O)NCCCC[C@@H](NC(=O)[C@@H](CO)NC(=O)[C@@H](CO)NC(=O)[C@@H](CO)NC(=O)CS)C(=O)N[C@H](Cc3ccc(O)cc3)C(=O)N[C@H](Cc3ccc4ccccc4c3)C(=O)N[C@H](CCCCNC(=O)CCCCCCC(=O)NCCCC[C@H](NC(=O)N[C@@H](CCC(=O)O)C(=O)O)C(=O)O)C(=O)O)c3ccc(S(=O)(=O)[O-])cc3C2(C)C)C(C)(C)c2cc(S(=O)(=O)O)ccc21 [[^99mTc]Tc-PSMA-HSG, metal not drawn]
scintigraphy findings (PSMA [1]; Patient #1, 53 µg): Two positive LN in the right and left external iliac region | scintigraphy findings (PSMA [1]; Patient #2, 53 µg): Moderate tracer uptake of the primary No positive LN | scintigraphy findings (PSMA [1]; Patient #3, 53 µg): Moderate tracer uptake of the primary No positive LN | scintigraphy findings (PSMA [1]; Patient #4, 350 µg): No discernible tracer uptake of the primary No discernible tracer uptake in the right iliac LN | scintigraphy findings (PSMA [1]; Patient #5, 250 µg): Moderate tracer uptake of the primary No positive LN | clearance in patients, visual image analysis (PSMA [1]; human, in vivo): swift activity clearance from blood/background via rapid renal excretion | intestinal accumulation in patients (PSMA [1]; human, in vivo): Virtually no intestinal accumulation | logD [2]: -2.94 | RGS, in vivo activity measurements (PSMA [3]; Patient #1, 53 µg): intraoperative detection feasible; after resection no further tracer accumulation detected | RGS, in and ex vivo activity measurements (PSMA [3]; Patient #2, 53 µg): In and ex vivo activity measurements: No positive LN | RGS, in and ex vivo activity measurements (PSMA [3]; Patient #3, 53 µg): In and ex vivo activity measurements: No positive LN | RGS, in and ex vivo activity measurements (PSMA [3]; Patient #5, 250 µg): In and ex vivo activity measurements: No positive LN | PSMA-specificity of tumor uptake, coinjection of 2-PMPA [4]: successfully blocked tumor accumulation | B50 HSA [5]: 273 ± 36
